Experiments:
Assay in all cases: relative viability (nuclei count vs DMSO), 5 days (fraction); higher = more cells survive
Vorinostat = compound: O=C(CCCCCCC(=O)Nc1ccccc1)NO [Vorinostat]
Summary of the method: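 After an overnight hold at 37 °C, lung cancer cell lines in 1536-well plates were pinned with five library-drug doses (not always all listed), each √10 from the next, on vehicle-anchored plates. The cells stayed 5 days without fresh medium, then a one-step fix, permeabilisation and Hoechst stain preceded 4× imaging and MetaXpress nuclear counts. A plate passed only with control CV under 25% and at least one doubling. Viability is the median, over plates, of treated-well nuclei relative to vehicle-well nuclei.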

Vorinostat + OSI-027 = compound: O=C(CCCCCCC(=O)Nc1ccccc1)NO [Vorinostat] + COc1cccc2cc(-c3nc([C@H]4CC[C@H](C(=O)O)CC4)n4ncnc(N)c34)[nH]c12 [OSI-027] (partner 0.5 µM)
Summary of the method: (§1)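 Nuclei were stained with Hoechst during a one-step fixation (final 0.05% Triton X-100, 1% formaldehyde, 1 ug/ml Hoechst) carried out 5 days after dosing, then counted on 4× images. The cells, lung cancer lines in 1536-well plates, had been dosed by pin tool the day after seeding with one drug alone or a fixed anchor-drug dose plus five library-drug doses (not always all listed) in √10 steps. Relative viability is the nuclei count in treated wells divided by that in vehicle wells, and each value is the median of duplicate plates.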

Vorinostat + Foretinib = compound: O=C(CCCCCCC(=O)Nc1ccccc1)NO [Vorinostat] + COc1cc2c(Oc3ccc(NC(=O)C4(C(=O)Nc5ccc(F)cc5)CC4)cc3F)ccnc2cc1OCCCN1CCOCC1 [Foretinib] (partner 0.25 µM)
Summary of the method: as §1

Vorinostat + Dasatinib = compound: O=C(CCCCCCC(=O)Nc1ccccc1)NO [Vorinostat] + Cc1nc(Nc2ncc(C(=O)Nc3c(C)cccc3Cl)s2)cc(N2CCN(CCO)CC2)n1 [Dasatinib] (partner 0.075 µM)
Summary of the method: as §1

Vorinostat + Phenformin = compound: O=C(CCCCCCC(=O)Nc1ccccc1)NO [Vorinostat] + N=C(N)NC(=N)NCCc1ccccc1 [Phenformin] (partner 250 µM)
Summary of the method: as §1

Vorinostat + Tozasertib = compound: O=C(CCCCCCC(=O)Nc1ccccc1)NO [Vorinostat] + Cc1cc(Nc2cc(N3CCN(C)CC3)nc(Sc3ccc(NC(=O)C4CC4)cc3)n2)n[nH]1 [Tozasertib] (partner 0.1 µM)
Summary of the method: as §1

Vorinostat + Luminespib = compound: O=C(CCCCCCC(=O)Nc1ccccc1)NO [Vorinostat] + CCNC(=O)c1noc(-c2cc(C(C)C)c(O)cc2O)c1-c1ccc(CN2CCOCC2)cc1 [Luminespib] (partner 0.01 µM)
Summary of the method: as §1

Vorinostat + Pemetrexed = compound: O=C(CCCCCCC(=O)Nc1ccccc1)NO [Vorinostat] + Nc1nc2[nH]cc(CCc3ccc(C(=O)N[C@@H](CCC(=O)O)C(=O)O)cc3)c2c(=O)[nH]1 [Pemetrexed] (partner 0.2 µM)
Summary of the method: as §1

Vorinostat + Palbociclib = compound: O=C(CCCCCCC(=O)Nc1ccccc1)NO [Vorinostat] + CC(=O)c1c(C)c2cnc(Nc3ccc(N4CCNCC4)cn3)nc2n(C2CCCC2)c1=O [Palbociclib] (partner 0.5 µM)
Summary of the method: as §1

Vorinostat + Trametinib = compound: O=C(CCCCCCC(=O)Nc1ccccc1)NO [Vorinostat] + CC(=O)Nc1cccc(-n2c(=O)n(C3CC3)c(=O)c3c(Nc4ccc(I)cc4F)n(C)c(=O)c(C)c32)c1 [Trametinib] (partner 0.02 µM)
Summary of the method: as §1

Vorinostat + Olaparib = compound: O=C(CCCCCCC(=O)Nc1ccccc1)NO [Vorinostat] + O=C(c1cc(Cc2n[nH]c(=O)c3ccccc23)ccc1F)N1CCN(C(=O)C2CC2)CC1 [Olaparib] (partner 8 µM)
Summary of the method: as §1

Vorinostat + AZD7762 = compound: O=C(CCCCCCC(=O)Nc1ccccc1)NO [Vorinostat] + NC(=O)Nc1cc(-c2cccc(F)c2)sc1C(=O)N[C@H]1CCCNC1 [AZD7762] (partner 0.2 µM)
Summary of the method: as §1

Vorinostat + Decitabine = compound: O=C(CCCCCCC(=O)Nc1ccccc1)NO [Vorinostat] + Nc1ncn([C@H]2C[C@H](O)[C@@H](CO)O2)c(=O)n1 [Decitabine] (partner 2 µM)
Summary of the method: as §1

Vorinostat + Linsitinib = compound: O=C(CCCCCCC(=O)Nc1ccccc1)NO [Vorinostat] + C[C@]1(O)C[C@@H](c2nc(-c3ccc4ccc(-c5ccccc5)nc4c3)c3c(N)nccn32)C1 [Linsitinib] (partner 1 µM)
Summary of the method: as §1

Vorinostat + Navitoclax = compound: O=C(CCCCCCC(=O)Nc1ccccc1)NO [Vorinostat] + CC1(C)CCC(c2ccc(Cl)cc2)=C(CN2CCN(c3ccc(C(=O)NS(=O)(=O)c4ccc(N[C@H](CCN5CCOCC5)CSc5ccccc5)c(S(=O)(=O)C(F)(F)F)c4)cc3)CC2)C1 [Navitoclax] (partner 0.5 µM)
Summary of the method: as §1

Vorinostat + Alpelisib = compound: O=C(CCCCCCC(=O)Nc1ccccc1)NO [Vorinostat] + Cc1nc(NC(=O)N2CCC[C@H]2C(N)=O)sc1-c1ccnc(C(C)(C)C(F)(F)F)c1 [Alpelisib] (partner 2 µM)
Summary of the method: as §1

Vorinostat + Lapatinib = compound: O=C(CCCCCCC(=O)Nc1ccccc1)NO [Vorinostat] + CS(=O)(=O)CCNCc1ccc(-c2ccc3ncnc(Nc4ccc(OCc5cccc(F)c5)c(Cl)c4)c3c2)o1 [Lapatinib] (partner 2 µM)
Summary of the method: as §1

Vorinostat + Crizotinib = compound: O=C(CCCCCCC(=O)Nc1ccccc1)NO [Vorinostat] + C[C@@H](Oc1cc(-c2cnn(C3CCNCC3)c2)cnc1N)c1c(Cl)ccc(F)c1Cl [Crizotinib] (partner 1 µM)
Summary of the method: as §1

Vorinostat + Bortezomib = compound: O=C(CCCCCCC(=O)Nc1ccccc1)NO [Vorinostat] + CC(C)C[C@H](NC(=O)[C@H](Cc1ccccc1)NC(=O)c1cnccn1)B(O)O [Bortezomib] (partner 0.002 µM)
Summary of the method: as §1

Vorinostat + Pictilisib = compound: O=C(CCCCCCC(=O)Nc1ccccc1)NO [Vorinostat] + CS(=O)(=O)N1CCN(Cc2cc3nc(-c4cccc5[nH]ncc45)nc(N4CCOCC4)c3s2)CC1 [Pictilisib] (partner 1 µM)
Summary of the method: as §1

## NCI-H1623
Vorinostat; 0.253 µM
  relative viability: 0.916
Vorinostat; 0.8 µM
  relative viability: 0.948
Vorinostat; 2.53 µM
  relative viability: 0.358
Vorinostat; 8 µM
  relative viability: 0.217
Vorinostat + OSI-027; first compound 0.253 µM
  relative viability: 0.462
Vorinostat + OSI-027; first compound 0.8 µM
  relative viability: 0.392
Vorinostat + OSI-027; first compound 2.53 µM
  relative viability: 0.281
Vorinostat + OSI-027; first compound 8 µM
  relative viability: 0.209
Vorinostat + Foretinib; first compound 0.253 µM
  relative viability: 0.918
Vorinostat + Foretinib; first compound 0.8 µM
  relative viability: 0.781
Vorinostat + Foretinib; first compound 2.53 µM
  relative viability: 0.42
Vorinostat + Foretinib; first compound 8 µM
  relative viability: 0.233
Vorinostat + Dasatinib; first compound 0.253 µM
  relative viability: 0.387
Vorinostat + Dasatinib; first compound 0.8 µM
  relative viability: 0.521
Vorinostat + Dasatinib; first compound 2.53 µM
  relative viability: 0.436
Vorinostat + Dasatinib; first compound 8 µM
  relative viability: 0.203
Vorinostat + Phenformin; first compound 0.253 µM
  relative viability: 0.61
Vorinostat + Phenformin; first compound 0.8 µM
  relative viability: 0.564
Vorinostat + Phenformin; first compound 2.53 µM
  relative viability: 0.462
Vorinostat + Phenformin; first compound 8 µM
  relative viability: 0.225
Vorinostat + Tozasertib; first compound 0.253 µM
  relative viability: 0.41
Vorinostat + Tozasertib; first compound 0.8 µM
  relative viability: 0.408
Vorinostat + Tozasertib; first compound 2.53 µM
  relative viability: 0.283
Vorinostat + Tozasertib; first compound 8 µM
  relative viability: 0.217
Vorinostat + Luminespib; first compound 0.253 µM
  relative viability: 0.529
Vorinostat + Luminespib; first compound 0.8 µM
  relative viability: 0.564
Vorinostat + Luminespib; first compound 2.53 µM
  relative viability: 0.398
Vorinostat + Luminespib; first compound 8 µM
  relative viability: 0.291

## NCI-H1648
Vorinostat; 0.253 µM
  relative viability: 0.815
Vorinostat; 0.8 µM
  relative viability: 0.725
Vorinostat; 1 µM, anchor plate
  relative viability: 0.596
Vorinostat; 2.53 µM
  relative viability: 0.252
Vorinostat; 8 µM
  relative viability: 0.209
Vorinostat + Pemetrexed; first compound 0.253 µM
  relative viability: 0.598
Vorinostat + Pemetrexed; first compound 0.8 µM
  relative viability: 0.595
Vorinostat + Pemetrexed; first compound 2.53 µM
  relative viability: 0.428
Vorinostat + Pemetrexed; first compound 8 µM
  relative viability: 0.241
Vorinostat + Palbociclib; first compound 0.253 µM
  relative viability: 0.278
Vorinostat + Palbociclib; first compound 0.8 µM
  relative viability: 0.239
Vorinostat + Palbociclib; first compound 2.53 µM
  relative viability: 0.224
Vorinostat + Palbociclib; first compound 8 µM
  relative viability: 0.213
Vorinostat + Trametinib; first compound 0.253 µM
  relative viability: 0.596
Vorinostat + Trametinib; first compound 0.8 µM
  relative viability: 0.494
Vorinostat + Trametinib; first compound 2.53 µM
  relative viability: 0.191
Vorinostat + Trametinib; first compound 8 µM
  relative viability: 0.191
Vorinostat + Olaparib; first compound 0.253 µM
  relative viability: 1.13
Vorinostat + Olaparib; first compound 0.8 µM
  relative viability: 0.674
Vorinostat + Olaparib; first compound 2.53 µM
  relative viability: 0.212
Vorinostat + Olaparib; first compound 8 µM
  relative viability: 0.201
Vorinostat + OSI-027; first compound 0.253 µM
  relative viability: 0.252
Vorinostat + OSI-027; first compound 0.8 µM
  relative viability: 0.267
Vorinostat + OSI-027; first compound 2.53 µM
  relative viability: 0.28
Vorinostat + OSI-027; first compound 8 µM
  relative viability: 0.263
Vorinostat + AZD7762; first compound 0.253 µM
  relative viability: 0.51
Vorinostat + AZD7762; first compound 0.8 µM
  relative viability: 0.496
Vorinostat + AZD7762; first compound 2.53 µM
  relative viability: 0.331
Vorinostat + AZD7762; first compound 8 µM
  relative viability: 0.212
Vorinostat + Decitabine; first compound 0.253 µM
  relative viability: 0.414
Vorinostat + Decitabine; first compound 0.8 µM
  relative viability: 0.473
Vorinostat + Decitabine; first compound 2.53 µM
  relative viability: 0.215
Vorinostat + Decitabine; first compound 8 µM
  relative viability: 0.22
Vorinostat + Tozasertib; first compound 0.253 µM
  relative viability: 0.457
Vorinostat + Tozasertib; first compound 0.8 µM
  relative viability: 0.319
Vorinostat + Tozasertib; first compound 2.53 µM
  relative viability: 0.161
Vorinostat + Tozasertib; first compound 8 µM
  relative viability: 0.158

## NCI-H1299
Vorinostat; 0.253 µM
  relative viability: 1.06
Vorinostat; 0.8 µM
  relative viability: 0.979
Vorinostat; 2.53 µM
  relative viability: 0.786
Vorinostat; 8 µM
  relative viability: 0.36
Vorinostat + Linsitinib; first compound 0.253 µM
  relative viability: 1.15
Vorinostat + Linsitinib; first compound 0.8 µM
  relative viability: 0.923
Vorinostat + Linsitinib; first compound 2.53 µM
  relative viability: 0.51
Vorinostat + Linsitinib; first compound 8 µM
  relative viability: 0.265
Vorinostat + Navitoclax; first compound 0.253 µM
  relative viability: 1.07
Vorinostat + Navitoclax; first compound 0.8 µM
  relative viability: 1
Vorinostat + Navitoclax; first compound 2.53 µM
  relative viability: 0.767
Vorinostat + Navitoclax; first compound 8 µM
  relative viability: 0.444
Vorinostat + Olaparib; first compound 0.253 µM
  relative viability: 1
Vorinostat + Olaparib; first compound 0.8 µM
  relative viability: 0.909
Vorinostat + Olaparib; first compound 2.53 µM
  relative viability: 0.642
Vorinostat + Olaparib; first compound 8 µM
  relative viability: 0.329
Vorinostat + Foretinib; first compound 0.253 µM
  relative viability: 1.05
Vorinostat + Foretinib; first compound 0.8 µM
  relative viability: 1.06
Vorinostat + Foretinib; first compound 2.53 µM
  relative viability: 0.717
Vorinostat + Foretinib; first compound 8 µM
  relative viability: 0.277
Vorinostat + Alpelisib; first compound 0.253 µM
  relative viability: 1.15
Vorinostat + Alpelisib; first compound 0.8 µM
  relative viability: 1.05
Vorinostat + Alpelisib; first compound 2.53 µM
  relative viability: 0.789
Vorinostat + Alpelisib; first compound 8 µM
  relative viability: 0.454
Vorinostat + Lapatinib; first compound 0.253 µM
  relative viability: 0.979
Vorinostat + Lapatinib; first compound 0.8 µM
  relative viability: 0.87
Vorinostat + Lapatinib; first compound 2.53 µM
  relative viability: 0.736
Vorinostat + Lapatinib; first compound 8 µM
  relative viability: 0.466
Vorinostat + Crizotinib; first compound 0.253 µM
  relative viability: 0.992
Vorinostat + Crizotinib; first compound 0.8 µM
  relative viability: 0.812
Vorinostat + Crizotinib; first compound 2.53 µM
  relative viability: 0.554
Vorinostat + Crizotinib; first compound 8 µM
  relative viability: 0.291
Vorinostat + Bortezomib; first compound 0.253 µM
  relative viability: 1.07
Vorinostat + Bortezomib; first compound 0.8 µM
  relative viability: 1.03
Vorinostat + Bortezomib; first compound 2.53 µM
  relative viability: 0.826
Vorinostat + Bortezomib; first compound 8 µM
  relative viability: 0.343
Vorinostat + Pictilisib; first compound 0.253 µM
  relative viability: 1.1
Vorinostat + Pictilisib; first compound 0.8 µM
  relative viability: 0.677
Vorinostat + Pictilisib; first compound 2.53 µM
  relative viability: 0.221
Vorinostat + Pictilisib; first compound 8 µM
  relative viability: 0.075
